In brackets after ≈: the same amount, converted by molar mass.
Legend:
[1] = target: T1, Kinase insert Domain containing Receptor (KDR: the catalytic domain of the VEGF receptor) (Homo sapiens, UniProt P35968); experiment: Inhibition of Kinase insert Domain containing Receptor (KDR), radioactive phosphorylation of Glu:Tyr copolymer; type: biochemical; conditions: IC50, substrate phosphorylation
T1 construct: KDR: the catalytic domain of the VEGF receptor
Summary of the method: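 KDR catalytic domain phosphorylates poly(Glu:Tyr 4:1) with Mg++ and sodium vanadate at pH 7.2, started by ATP plus 32P- or 33P-ATP tracer. Acid-insoluble radioactivity quantifies substrate phosphorylation. Repeat entries per compound are separate runs.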

A431 = experiment: Inhibition of Cancer Cell Growth as Measured by Cell Number (Sulforhodamine B); type: cell-based, Human; conditions: Homo sapiens, A-431, 48 h, 48 hours exposure
Method: (§1) Human tumor cell lines were plated in 96-well plates (250 µl/well, 1-6 x 10^4 cells/ml) in RPMI 1640 medium, containing 5% FBS (Fetal Bovine Serum). […] After 48 hours exposure to test compounds, cells were fixed with trichloroacetic acid, and stained with Sulforhodamine B. After washing with trichloroacetic acid, bound dye was solubilized in 10 mM Tris base and optical density was determined using plate reader. Under conditions of the assay the optical density is proportional to the number of cells in the well. […] The test procedure is described in details by Philip Skehan et. al, J.Natl. Canc. Inst., 82, 1107-1112 (1990). […] Information about some of the cell lines used in these test procedures is available from the American Type Tissue Collection: Cell Lines and Hybridomas, 1994 Reference Guide, 8th Edition.

MDA-MB-435 = experiment: as above; type: cell-based, Human; conditions: Homo sapiens, MDA-MB-435, 48 h, 48 hours exposure
Method: as §1

SK-BR3 = experiment: as above; type: cell-based, Human; conditions: Homo sapiens, SK-BR-3, 48 h, 48 hours exposure
Method: as §1

SW620 = experiment: as above; type: cell-based, Human; conditions: Homo sapiens, SW-620, 48 h, 48 hours exposure
Method: as §1

A2780 = experiment: as above; type: cell-based; conditions: Homo sapiens, 48 hours exposure
Method: as §1

DDP = experiment: as above; type: cell-based; conditions: Homo sapiens; 48 hours exposure
Method: as §1

[2] = test system: Human Colon Carcinoma SW620; experiment: In Vivo Inhibition of the Growth of Human Colon Carcinoma SW620 in mice; conditions: for S/T = No. Survivors/No. Treated on Day +21 post tumor staging / %T/C Day 7 / %T/C Day 14 / Relative Tumor Growth Day 14 / %T/C Day 21 / Relative Tumor Growth Day 21 / Relative Tumor Growth Day 7: days 1 through 20; for tumor growth was inhibited by: 30 mg/kg i.p. during days 1-20
Method: A unit of 7 X 10^6 cells were injected SC into mice. […] Control animals received vehicle only. Tumor mass was determined every 7 days [(length X width^2)/2] for 28 days post staging.

[3] = target: T2, epidermal growth factor receptor kinase (EGF-R Kinase, recombinant enzyme; His-tagged cytoplasmic domain of EGFR) (Homo sapiens, UniProt P00533); experiment: Inhibition of Epidermal Growth Factor Receptor Kinase (EGF-R) using recombinant enzyme, RR-SRC peptide phosphorylation, 33P-ATP; type: biochemical
T2 construct: EGFR cDNA encoding amino acids 645 - 1186 preceded by Met-Ala-(His)6; Met-Ala-(His)6 (N); made in house; host or cells: Sf9 insect cells, recombinant baculovirus vHcEGFR52
Summary of the method: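 His-tagged EGFR cytoplasmic domain (aa 645–1186, baculovirus/Sf9) preincubated with compound 10 min on ice, then RR-SRC peptide (80 µM final) and γ-33P-ATP added. Reaction run 90 min at room temperature; peptide-bound 33P counted on P81 filters, background-corrected. IC50 from dose-response of ≥3 concentrations.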

[4] = target: Epithelial Cell Kinase (ECK) (Homo sapiens, UniProt P29317); experiment: Inhibition of Epithelial Cell Kinase (ECK), immobilized biotinylated peptide, HRP anti-phosphotyrosine readout; type: biochemical; conditions: IC50, substrate phosphorylation
Summary of the method: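 Biotinylated peptide substrate immobilized on neutravidin plates, reacted with ECK, test drug, Mg++ and sodium vanadate at pH 7.2; ATP added to start phosphorylation. After washing, phosphopeptide detected with HRP-conjugated anti-phosphotyrosine antibody, HRP activity reflecting substrate phosphorylation. Repeat entries are separate tests of the same compound.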

3T3/c-erbb2 = experiment: Inhibition of Cancer Cell Growth as Measured by Cell Number (Sulforhodamine B); type: cell-based; conditions: 48 hours exposure
Method: as §1

3T3 = experiment: as above; type: cell-based; conditions: Mus musculus, NIH3T3; 48 hours exposure
Method: as §1

T2 sequence (P00533 669-1210): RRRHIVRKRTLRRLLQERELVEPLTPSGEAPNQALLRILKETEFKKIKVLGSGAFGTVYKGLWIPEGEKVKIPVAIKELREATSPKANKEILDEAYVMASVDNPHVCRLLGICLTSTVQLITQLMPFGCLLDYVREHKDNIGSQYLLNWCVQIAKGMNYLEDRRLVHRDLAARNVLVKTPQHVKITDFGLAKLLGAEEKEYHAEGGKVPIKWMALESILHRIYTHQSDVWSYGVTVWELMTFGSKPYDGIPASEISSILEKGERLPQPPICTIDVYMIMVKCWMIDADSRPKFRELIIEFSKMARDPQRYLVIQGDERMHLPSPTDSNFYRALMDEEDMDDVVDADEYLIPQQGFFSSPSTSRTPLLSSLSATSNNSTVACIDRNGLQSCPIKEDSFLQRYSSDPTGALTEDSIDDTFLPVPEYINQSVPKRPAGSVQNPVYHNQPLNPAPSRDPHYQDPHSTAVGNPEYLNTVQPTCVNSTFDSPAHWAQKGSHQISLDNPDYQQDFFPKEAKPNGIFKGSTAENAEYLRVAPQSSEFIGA
T1 sequence (P35968 834-1162 limits assumed): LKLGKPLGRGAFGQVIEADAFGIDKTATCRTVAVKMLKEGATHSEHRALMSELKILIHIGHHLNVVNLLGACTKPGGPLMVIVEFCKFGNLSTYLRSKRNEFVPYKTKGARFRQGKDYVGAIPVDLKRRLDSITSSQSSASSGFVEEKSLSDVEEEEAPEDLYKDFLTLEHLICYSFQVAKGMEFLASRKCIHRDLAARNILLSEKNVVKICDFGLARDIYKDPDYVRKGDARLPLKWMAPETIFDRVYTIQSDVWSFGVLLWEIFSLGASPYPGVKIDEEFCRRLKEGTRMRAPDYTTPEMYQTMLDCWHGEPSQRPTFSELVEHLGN
Chain of Epithelial Cell Kinase (ECK) (P29317 24-976, species assumed): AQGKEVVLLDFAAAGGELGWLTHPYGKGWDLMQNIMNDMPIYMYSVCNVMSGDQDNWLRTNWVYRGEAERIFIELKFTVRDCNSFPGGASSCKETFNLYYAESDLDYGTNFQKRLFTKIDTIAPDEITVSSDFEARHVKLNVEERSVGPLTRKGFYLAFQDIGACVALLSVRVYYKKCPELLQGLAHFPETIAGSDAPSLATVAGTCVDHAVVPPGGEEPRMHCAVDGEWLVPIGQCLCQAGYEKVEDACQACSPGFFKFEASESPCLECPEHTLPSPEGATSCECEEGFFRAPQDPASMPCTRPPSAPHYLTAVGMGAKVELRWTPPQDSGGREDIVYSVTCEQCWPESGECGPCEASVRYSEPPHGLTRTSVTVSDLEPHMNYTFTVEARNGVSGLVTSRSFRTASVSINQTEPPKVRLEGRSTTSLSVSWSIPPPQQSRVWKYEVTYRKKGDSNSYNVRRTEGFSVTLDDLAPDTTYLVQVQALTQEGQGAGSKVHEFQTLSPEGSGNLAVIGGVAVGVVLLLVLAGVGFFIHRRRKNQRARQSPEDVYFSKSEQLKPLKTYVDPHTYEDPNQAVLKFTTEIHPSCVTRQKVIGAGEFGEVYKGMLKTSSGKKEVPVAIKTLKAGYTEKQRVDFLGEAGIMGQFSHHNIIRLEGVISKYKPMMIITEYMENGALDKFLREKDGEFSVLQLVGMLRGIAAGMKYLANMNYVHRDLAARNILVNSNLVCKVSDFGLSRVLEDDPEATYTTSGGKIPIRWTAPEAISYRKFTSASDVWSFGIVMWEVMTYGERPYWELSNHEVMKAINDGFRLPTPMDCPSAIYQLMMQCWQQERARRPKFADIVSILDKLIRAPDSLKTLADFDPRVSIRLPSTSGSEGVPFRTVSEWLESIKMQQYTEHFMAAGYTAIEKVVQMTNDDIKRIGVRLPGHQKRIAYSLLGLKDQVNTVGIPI

## CCOc1cc2ncc(C#N)c(Nc3ccc4cn[nH]c4c3)c2cc1OCC [Example 99, 6,7-Diethoxy-4-(1H-indazol-6-ylamino)-quinoline-3-carbonitrile]
[1]
  IC50: 21.4 µM
A431
  IC50: 0.025 µg/mL (≈ 0.0669 µM)
MDA-MB-435
  IC50: 0.02 µg/mL (≈ 0.0536 µM)
SK-BR3
  IC50: 0.016 µg/mL (≈ 0.0428 µM)
SW620
  IC50: 0.033 µg/mL (≈ 0.0884 µM)
A2780
  IC50: 0.032 µg/mL (≈ 0.0857 µM)
DDP
  IC50: 0.036 µg/mL (≈ 0.0964 µM)
[2]; 3 mg/kg/dose IP
  S/T = No. Survivors/No. Treated on Day +21 post tumor staging: 5/5
  %T/C Day 7: 93%
  %T/C Day 14: 108%
  Relative Tumor Growth Day 14: 12.53
  %T/C Day 21: 147%
  Relative Tumor Growth Day 21: 16.47
[2]; 10 mg/kg/dose IP
  S/T = No. Survivors/No. Treated on Day +21 post tumor staging: 5/5
  %T/C Day 7: 90%
  Relative Tumor Growth Day 7: 3.69
  %T/C Day 14: 68%
  Relative Tumor Growth Day 14: 7.88
  %T/C Day 21: 87%
  Relative Tumor Growth Day 21: 9.75
[2]; day 7
  tumor growth was inhibited by: 56%
[2]; day 14
  tumor growth was inhibited by: 67%
[2]; day 21
  tumor growth was inhibited by: 60%
[2]; 30 mg/kg/dose IP
  S/T = No. Survivors/No. Treated on Day +21 post tumor staging: 4/5
  %T/C Day 7: 44%
  Relative Tumor Growth Day 7: 1.81
  %T/C Day 14: 33%
  Relative Tumor Growth Day 14: 3.85
  %T/C Day 21: 40%
  Relative Tumor Growth Day 21: 4.44

## CCOc1cc2ncc(C#N)c(Nc3ccc4cc[nH]c4c3)c2cc1OCC [Example 101, 6,7-Diethoxy-4-(1H-indol-6-ylamino)-quinoline-3-carbonitrile]
[3]; read-out: %Inh @ 0.5 µM
  inhibition at 0.5 µM: 27%
[3]; recombinant enzyme, 90 min at room temperature
  IC50: > 1 µM
[4]
  IC50: > 53.7 µM
[1]
  IC50: 5.37 µM
A431
  IC50: 0.216 µg/mL (≈ 0.58 µM)
SW620
  IC50: 0.326 µg/mL (≈ 0.875 µM)
3T3/c-erbb2
  IC50: 0.933 µg/mL (≈ 2.51 µM)
3T3
  IC50: 1.53 µg/mL (≈ 4.11 µM)
A2780
  IC50: 0.231 µg/mL (≈ 0.62 µM)
DDP
  IC50: 0.313 µg/mL (≈ 0.84 µM)

— patent publication EP1117659B1, “SUBSTITUTED 3-CYANOQUINOLINES AS PROTEIN TYROSINE KINASES INHIBITORS” (Wyeth Holdings Corporation, priority 1998, dated 2000)
